According to patent US6048854A, “2,3-diaminopropionic acid derivative” (Sumitomo Pharmaceuticals Company, Limited, priority 1993, dated 2000):
Like-named read-outs stand apart in the source and are kept apart here.

How the values were obtained:
platelet aggregation [1] = assay: Platelet aggregation inhibitory activity (ADP-induced, human platelet rich plasma); format: cell-based
Outline: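 Citrated human platelet-rich plasma […] was stirred with test compound for 2 min at 37 °C. Aggregation was then induced with ADP at 3 μg/ml final and monitored by nephelometry. IC50 is the concentration giving 50% inhibition of aggregation.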

human fibrinogen = target: T1, human fibrinogen (Homo sapiens, UniProt P05106+P08514); assay: Binding assay of platelet to adhesive protein: fibrinogen (receptor binding inhibition); settings: Table 4; fixed activated human platelets, 37° C., 60 minutes
T1 construct: centrifuged at 11000 rpm for two minutes to give human platelet; from tissue
Description: (§1) The blood was taken out from the elbow vein of a normal volunteer, and mixed with 1/10 volume of 3.8% sodium citrate. The blood was centrifuged at 1,000 rpm (150 g) for 10 minutes, and the supernatant is collected as a platelet rich plasma (PRP). The precipitates are centrifuged at 11,000 rpm (6000 g) for two minutes, and the supernatant is collected as a platelet poor plasma (PPP). To PRP is added prostaglandin I2 (PGl2) at a final concentration of 50 ng/ml, and the mixture was centrifuged at 11000 rpm for two minutes to give human platelet. The platelet was activated by washing with 3.8 mM HEPES-buffer (pH 7.4, Tyrode-HEPES buffer) containing 0.14 M sodium chloride, 2.7 mM potassium chloride, 3.7 mM sodium dihydrogen phosphate, 0.98 mM magnesium chloride, 1 mg/ml glucose, 50 ng/ml PGl2 and 0.35% bovine serum albumin (BSA), adding thereto 5 μM epinephrine, and 30 μM ADP (adenosine diphosphate), followed by being allowed to stand at room temperature for five minutes. To the activated platelet was added 0.05% p-formaldehyde, and the mixture was allowed to stand at room temperature for 30 minutes to give the fixed platelet, which was suspended in Tyrode-HEPES buffer to give a platelet suspension of a concentration of 2×10^8 ml^-1.
(§2) Human fibrinogen from which fibronectin was previously removed by passing through gelatin-cepharose, human fibronectin or human vitronectin was diluted with 0.1 M aqueous sodium hydrogen carbonate solution to a concentration of 5 μg/ml, and the protein solution is put into a 96-well microplate at a volume of 200 μl/well. The microplate was allowed to stand at 4° C. overnight. The plate was washed with phosphate buffered saline (PBS), and subjected to blocking with 3% BSA at 37° C. for one hour. To the plate were added a platelet suspension (final concentration, 10^8 ml^-1) and a test compound of various concentrations (total volume, 200 μl/well), and the plate was incubated at 37° C. for 60 minutes. The plate was treated with 1000-fold diluted enzyme (HRP)-labelled anti-mouse IgG polyclonal antibody at 37° C. for 60 minutes, and thereto was added HRP chromogenic substrate (0.1 M phosphate buffer containing 0.4 mg/ml O-phenylenediamine,0.01% hydrogen peroxide, 0.1 M citric acid, pH 5), and reacted at room temperature for 15 minutes. The reaction was terminated by adding thereto 4.5 M sulfuric acid at a volume of 25 μl/well, and the absorbance at 490 nm was measured.

human fibronectin = assay: Binding assay of platelet to adhesive protein: fibronectin (receptor binding inhibition); settings: Table 4; fixed activated human platelets, 37° C., 60 minutes
Description: as §1, §2

human vitronectin = assay: Binding assay of platelet to adhesive protein: vitronectin (receptor binding inhibition); settings: Table 4; fixed activated human platelets, 37° C., 60 minutes; read-out: receptor binding inhibition (IC50), Bitronectin
Description: as §1, §2

platelet aggregation [2] = assay: Platelet aggregation inhibitory activity (ex vivo) after oral administration; format: in vivo; settings: Cavia porcellus, guinea pig, oral 0.1 mg/kg, ADP 10 μg/ml
Description: A canula for collecting blood was inserted into the left common carotid artery of a guinea pig which was anesthetized with pentobarbital (30 mg/kg, i.p.). The blood (1 ml) was taken with a syringe containing 1/10 volume of 3.8% sodium citrate (Kettin-citrate, manufactured by Kokusai Shiyaku Ltd.), and the platelet aggregation ability thereof was measured (as a value before administration). Then, a test compound was orally administered to the guinea pig at a dose of 0.1 mg/kg in a volume of 5 ml/kg, and the blood was collected periodically likewise at 0.5, 1, 2, 4 and 6 hours after the administration of the test compound, and the platelet aggregation ability thereof was measured.
The determination of the platelet aggregation ability was carried out by turbidimetry using a Hematracer (Niko Bioscience) as follows. That is, the blood was centrifuged at 4500 rpm at room temperature for 10 seconds, and the supernatant was considered as platelet rich plasma (PRP), and the precipitate was centrifuged at 11000 rpm for two minutes and its supernatant was considered as platelet poor plasma (PPP), and the photo-transmittance of the PRP and the PPP was adjusted to 0%, and 100%, respectively. A cubet containing PRP (200 μl) was inserted to a measurement well, and […] at 1000 rpm at 37° C. for two minutes, and thereto was added a platelet aggregator; ADP (adenosine diphosphate, Sigma Ltd., 20 μl, final concentration; 10 μg/ml), and the maximum aggregation rate was measured. From the maximum aggregation rate before the administration of the test compound (MAR control) and the maximum aggregation rate after the administration of the test compound (MAR sample), the platelet aggregation inhibitory rate of each test compound was estimated according to the following equation.
Inhibitory rate (%)=(1-(MAR sample/MAR control))×100
The periodical change in the platelet aggregation inhibitory rate of each test compound at a dose of 0.1 mg/kg of oral administration is shown in Table 5.

[3] = Homo sapiens, Table 3, same manner as Example 17
[4] = 0.5 hr, read-out: platelet aggregation inhibitory rate (%), 0.5 hr
[5] = 1 hr, read-out: platelet aggregation inhibitory rate (%), 1 hr
[6] = 2 hrs, read-out: platelet aggregation inhibitory rate (%), 2 hrs
[7] = 4 hrs, read-out: platelet aggregation inhibitory rate (%), 4 hrs
[8] = 6 hrs, read-out: platelet aggregation inhibitory rate (%), 6 hrs
[9] = Homo sapiens, Table 2, same manner as Example 17
[10] = Table 1, human PRP, ADP 3 μg/ml, 37° C.

T1 sequence (P08514 32-887 limits assumed): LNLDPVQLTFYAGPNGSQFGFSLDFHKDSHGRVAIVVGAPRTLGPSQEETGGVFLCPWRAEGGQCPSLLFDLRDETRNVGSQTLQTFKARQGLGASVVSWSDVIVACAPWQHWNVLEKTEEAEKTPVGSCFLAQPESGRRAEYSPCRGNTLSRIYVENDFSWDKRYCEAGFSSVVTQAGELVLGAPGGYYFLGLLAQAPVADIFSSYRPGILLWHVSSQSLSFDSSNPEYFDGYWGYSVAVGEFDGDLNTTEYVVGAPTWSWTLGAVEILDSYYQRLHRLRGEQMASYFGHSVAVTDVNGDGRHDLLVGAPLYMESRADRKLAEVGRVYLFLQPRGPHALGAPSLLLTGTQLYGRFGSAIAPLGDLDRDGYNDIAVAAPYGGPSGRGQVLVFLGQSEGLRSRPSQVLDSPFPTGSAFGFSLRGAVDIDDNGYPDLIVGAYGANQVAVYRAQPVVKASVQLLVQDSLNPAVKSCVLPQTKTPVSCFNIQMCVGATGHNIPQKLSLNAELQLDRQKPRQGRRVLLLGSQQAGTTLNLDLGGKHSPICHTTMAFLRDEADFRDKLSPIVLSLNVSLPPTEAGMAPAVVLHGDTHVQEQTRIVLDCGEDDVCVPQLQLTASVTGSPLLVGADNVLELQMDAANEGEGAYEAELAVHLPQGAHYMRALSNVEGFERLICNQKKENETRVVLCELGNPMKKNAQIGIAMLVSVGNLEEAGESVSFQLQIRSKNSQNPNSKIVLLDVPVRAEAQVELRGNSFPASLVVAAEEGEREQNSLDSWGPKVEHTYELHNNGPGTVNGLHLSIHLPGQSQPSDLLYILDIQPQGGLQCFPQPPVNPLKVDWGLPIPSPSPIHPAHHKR
T1 sequence (P08514 891-1039 limits assumed): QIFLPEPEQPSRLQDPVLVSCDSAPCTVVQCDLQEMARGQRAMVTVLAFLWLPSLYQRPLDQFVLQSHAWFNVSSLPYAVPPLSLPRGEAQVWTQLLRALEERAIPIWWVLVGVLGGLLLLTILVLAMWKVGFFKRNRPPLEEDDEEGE
T1 sequence (P05106 27-788): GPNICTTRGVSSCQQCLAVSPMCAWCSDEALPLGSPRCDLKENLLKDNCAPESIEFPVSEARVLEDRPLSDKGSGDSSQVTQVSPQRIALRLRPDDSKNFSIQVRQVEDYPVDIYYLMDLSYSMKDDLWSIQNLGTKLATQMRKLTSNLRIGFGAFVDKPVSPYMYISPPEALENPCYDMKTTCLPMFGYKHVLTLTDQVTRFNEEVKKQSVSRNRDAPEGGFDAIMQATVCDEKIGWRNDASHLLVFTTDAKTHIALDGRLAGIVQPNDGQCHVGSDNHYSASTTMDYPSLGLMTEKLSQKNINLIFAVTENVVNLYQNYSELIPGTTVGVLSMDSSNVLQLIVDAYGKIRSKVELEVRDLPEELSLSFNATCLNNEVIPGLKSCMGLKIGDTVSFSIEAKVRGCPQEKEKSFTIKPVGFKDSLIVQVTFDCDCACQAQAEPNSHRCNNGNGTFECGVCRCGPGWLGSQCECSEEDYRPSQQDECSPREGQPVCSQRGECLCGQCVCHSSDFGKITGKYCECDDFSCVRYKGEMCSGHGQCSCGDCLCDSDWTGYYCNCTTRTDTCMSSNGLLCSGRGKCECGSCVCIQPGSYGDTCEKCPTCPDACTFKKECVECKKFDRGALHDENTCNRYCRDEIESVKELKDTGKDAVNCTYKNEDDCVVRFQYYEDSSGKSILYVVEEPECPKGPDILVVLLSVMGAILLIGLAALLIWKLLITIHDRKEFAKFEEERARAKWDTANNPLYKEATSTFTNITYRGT

IC50 (platelet aggregation [1]; [3]) | IC50 (human fibrinogen) | IC50 (human fibronectin) | IC50 (human vitronectin) | IC50 (platelet aggregation [1]; [9]) | IC50 (platelet aggregation [1]; [10]) | Structure (SMILES) | inhibition in vivo at 0.1 mg/kg (platelet aggregation [2]; [4]) | inhibition in vivo at 0.1 mg/kg (platelet aggregation [2]; [5]) | inhibition in vivo at 0.1 mg/kg (platelet aggregation [2]; [6]) | inhibition in vivo at 0.1 mg/kg (platelet aggregation [2]; [7]) | inhibition in vivo at 0.1 mg/kg (platelet aggregation [2]; [8])
23 nM | 4.7 nM | 50 nM | 1300 nM | – | – | N=C(N)c1ccc(CCCCCC(=O)NC[C@H](NS(=O)(=O)c2ccccc2)C(=O)O)cc1 [Example 91, (2S)-3-(6-(4-amidinophenyl)hexanoylamino)-2-benzenesulfonylaminopropanoic Acid] | 51% | 41% | 31% | 14% | 39%
31 nM | 1.2 nM | 19 nM | 270 nM | – | – | N=C(N)c1ccc(OCCCC(=O)NC[C@H](NS(=O)(=O)c2ccccc2C(F)(F)F)C(=O)O)cc1 [Example 82, (2S)-3-(4-(4-amidinophenoxy)butanoylamino)-2-(2-trifluoromethyl)benzenesulfonylaminopropanoic Acid] | 81% | 66% | 54% | 52% | 51%
– | 1.1 nM | 4.5 nM | 240 nM | 26 nM | – | N=C(N)c1ccc(OCCCC(=O)NC[C@H](NS(=O)(=O)c2cccc3ccccc23)C(=O)O)cc1 [Example 62, (2S)-3-(4-(4-amidinophenoxy)butanoylamino)-2-(1-naphthalene)sulfonylaminopropanoic Acid] | 63% | 69% | 63% | 56% | 50%
37 nM | 3.9 nM | 24 nM | 500 nM | – | – | Cc1cc(C)c(S(=O)(=O)N[C@@H](CNC(=O)CCCCCc2ccc(C(=N)N)cc2)C(=O)O)c(C)c1 [Example 92, (2S)-3-(6-(4-amidinophenyl)hexanoylamino)-2-(2,4,6-trimethyl)benzenesulfonylaminopropanoic Acid] | 68% | 34% | 24% | 47% | 0%
56 nM | 1.1 nM | 120 nM | 500 nM | – | – | Cc1cc(C)c(S(=O)(=O)N[C@@H](CNC(=O)CCCCOc2ccc(C(=N)N)cc2)C(=O)O)c(C)c1 [Example 86, (2S)-3-(5-(4-amidinophenoxy)pentanoylamino)-2-(2,4,6-trimethyl)benzenesulfonylaminopropanoic Acid] | 46% | 0% | 0% | 0% | 0%
30 nM | 22 nM | 770 nM | 7800 nM | – | – | CCc1ccc(S(=O)(=O)N[C@@H](CNC(=O)CCCOc2ccc(C(=N)N)cc2)C(=O)O)cc1 [Example 83, (2S)-3-(4-(4-amidinophenoxy)butanoylamino)-2-(4-ethyl)benzenesulfonylaminopropanoic Acid] | 50% | 47% | 48% | 32% | 41%
– | 12 nM | 120 nM | 75000 nM | – | 39.6 nM | O=C(CCC1CCNCC1)NCCC(=O)NC[C@H](NS(=O)(=O)c1ccccc1)C(=O)O [Example 2, (2S)-2-benzenesulfonylamino-3-(3-(3-(4-piperidyl)propanoylamino)propanoylamino)propanoic Acid] | 87% | 78% | 67% | 32% | 13%

Second part, the compound before the results:

Structure (SMILES) | IC50 (platelet aggregation [1]; [3]) | IC50 (human fibrinogen) | IC50 (human fibronectin) | IC50 (human vitronectin) | IC50 (platelet aggregation [1]; [9]) | IC50 (platelet aggregation [1]; [10]) | inhibition in vivo at 0.1 mg/kg (platelet aggregation [2]; [4]) | inhibition in vivo at 0.1 mg/kg (platelet aggregation [2]; [5]) | inhibition in vivo at 0.1 mg/kg (platelet aggregation [2]; [6]) | inhibition in vivo at 0.1 mg/kg (platelet aggregation [2]; [7]) | inhibition in vivo at 0.1 mg/kg (platelet aggregation [2]; [8])
N=C(N)c1ccc(C(=O)NCCC(=O)NC[C@H](NS(=O)(=O)c2ccccc2)C(=O)O)cc1 [Example 1, (2S)-3-(3-(4-amidinobenzoylamino)propanoylamino)-2-benzenesulfonylaminopropanoic Acid] | – | 4.6 nM | 200 nM | 1000 nM | – | 16 nM | 100% | 100% | 100% | 100% | 100%
COc1ccc(S(=O)(=O)N[C@@H](CNC(=O)CCNC(=O)c2ccc(C(=N)N)cc2)C(=O)O)cc1 [Example 18, (2S)-3-(3-(4-amidinobenzoylamino)propanoylamino)-2-(4-methoxy)benzenesulfonylaminopropanoic Acid] | – | 7.3 nM | 400 nM | 8900 nM | 33 nM | – | 54% | 100% | 100% | 73% | 66%
N=C(N)c1ccc(N2CCC(CC(=O)NC[C@H](NS(=O)(=O)c3ccccc3)C(=O)O)CC2)cc1 [Example 69, (2S)-3-(2-(1-(4-amidinophenyl)-4-piperidyl)ethanoylamino)-2-benzenesulfonylaminopropanoic Acid] | – | 9.8 nM | 60 nM | 970 nM | 29 nM | – | 69% | 39% | 22% | 6% | 3%
N=C(N)c1ccc(OCCCCC(=O)NC[C@H](NS(=O)(=O)c2ccccc2)C(=O)O)cc1 [Example 64, (2S)-3-(5-(4-amidinophenoxy)pentanoylamino)-2-benzenesulfonylaminopropanoic Acid] | – | 24 nM | 280 nM | 4800 nM | 32 nM | – | 50% | 0% | 0% | 0% | 0%
